US5521069A, “Genomic DNA exons having exons encoding human pituitary adenylate cyclase activity peptide with 38 amino acids residues(PACAP38) and a promoter thereof” (Takeda Chemical Industries, Ltd., priority 1990, dated 1996)
Where no end group is shown, it is not given here.

How the values were obtained:
rat pituicytes = experiment: Adenylate Cyclase Stimulating Test in Rat Pituicyte Culture; assay type: cell-based; conditions: Experiment 2, blank 1.35 ± 0.05
Excerpt: The amino acid sequence of sheep PACAP38 is believed to be identical to that of human PACAP38. […] The minimum effective amount was 10^-12 M, and it was shown that the activity increased with increasing concentration.

[1] = Hypotensive activity in anesthetized male Wistar rats; assay type: in vivo, rat; conditions: nembutal anesthesia
Experimental: Using male Wistar rats having a body weight of 350 g under nembutal anesthesia, the hypotensive activity was measured.

Substance | cAMP (M ± SEM) (rat pituicytes; 10^-7 M) | cAMP (M ± SEM) (rat pituicytes; 10^-8 M) | cAMP (M ± SEM) (rat pituicytes; 10^-9 M) | cAMP (M ± SEM) (rat pituicytes; 10^-10 M) | cAMP (M ± SEM) (rat pituicytes; 10^-11 M) | cAMP (M ± SEM) (rat pituicytes; 10^-12 M) | Hypotensive activity (decrease from normal value) ([1]; dosage 0.3 n mole/kg) | Hypotensive activity (decrease from normal value) ([1]; dosage 1.0 n mole/kg) | Hypotensive activity (decrease from normal value) ([1]; dosage 3.0 n mole/kg)
PACAP27 NH2 [Syn.27p-NH2] | 9.20 ± 0.20 p mol/ml | 9.20 ± 0.00 p mol/ml | 7.90 ± 0.30 p mol/ml | 4.00 ± 0.20 p mol/ml | 2.55 ± 0.15 p mol/ml | 2.05 ± 0.15 p mol/ml | 14.5 ± 3.1 mm Hg | 51.9 ± 9.6 mm Hg | 4.1 mm Hg
PACAP38 NH2 (HSDGIFTDSYSRYRKQMAVKKYLAAVLGKRYKQRVKNK-NH2; UniProt P18509 132-169, looked up) |  |  |  |  |  |  | 3.2 ± 1.9 mm Hg | 17.4 ± 2.4 mm Hg | 29.8 ± 3.6 mm Hg
